# Target: purified recombinant human GAC (GLS1) (Homo sapiens (Human), UniProt O94925)
# Assay: GLS1 Enzymatic Activity Assay (dual-coupled enzymatic assay, resorufin/Amplex UltraRed readout);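 also: glutamate from GAC coupled via glutamate oxidase and peroxidase to resorufin, read as fluorescence (ex 530, em 590 nm) kinetically or at 20 min, four-parameter logistic IC50 fit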
# Format: biochemical
# Details: not given
# Sequence of purified recombinant human GAC (GLS1) (O94925 other isoform, or with tags, fused parts or gaps): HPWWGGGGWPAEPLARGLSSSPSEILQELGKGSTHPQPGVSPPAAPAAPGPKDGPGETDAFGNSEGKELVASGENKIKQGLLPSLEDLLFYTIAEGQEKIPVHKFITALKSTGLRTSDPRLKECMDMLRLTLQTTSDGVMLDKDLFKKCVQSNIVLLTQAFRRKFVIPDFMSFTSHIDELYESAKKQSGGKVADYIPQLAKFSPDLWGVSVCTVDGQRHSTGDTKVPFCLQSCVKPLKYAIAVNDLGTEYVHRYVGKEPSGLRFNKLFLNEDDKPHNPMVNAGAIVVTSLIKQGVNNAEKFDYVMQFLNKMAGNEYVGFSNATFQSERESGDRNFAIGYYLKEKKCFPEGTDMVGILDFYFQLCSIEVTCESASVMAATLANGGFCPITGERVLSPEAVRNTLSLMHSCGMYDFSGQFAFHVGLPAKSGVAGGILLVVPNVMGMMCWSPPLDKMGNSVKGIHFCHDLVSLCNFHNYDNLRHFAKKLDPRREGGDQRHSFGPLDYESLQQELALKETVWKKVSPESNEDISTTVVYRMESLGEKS
row,SMILES,IC50 [nM]
1,"O=C(Cc1cccnc1)Nc1cn(CCCCn2cc(C(=O)NCc3ccccn3)nn2)nn1 [Example 298, N-(pyridin-2-ylmethyl)-1-(4-{4-[2-(pyridin-3-yl)acetamido]-1H-1,2,3-triazol-1-yl}butyl)-1H-1,2,3-triazole-4-carboxamide]",500 to 5000
2,"O=C(Cc1ccccn1)Nc1cn(CC(F)CCn2cc(C(=O)NCc3ncccc3F)nn2)nn1 (centres unmarked) [Example 365, 1-(3-fluoro-4-{4-[2-(pyridin-2-yl)acetamido]-1H-1,2,3-triazol-1-yl}butyl)-N-[(3-fluoropyridin-2-yl)methyl]-1H-1,2,3-triazole-4-carboxamide]",500 to 5000
3,"O=C(CN1CC(F)C1)Nc1cn(CCCCn2cc(C(=O)NCc3ccccn3)nn2)nn1 [Example 324, 1-(4-{4-[2-(3-fluoroazetidin-1-yl)acetamido]-1H-1,2,3-triazol-1-yl}butyl)-N-(pyridin-2-ylmethyl)-1H-1,2,3-triazole-4-carboxamide]",500 to 5000
4,"Cc1ccc(CNC(=O)c2nnc(CCCCn3cc(C(=O)NCC4CC4)nn3)s2)cn1 [Example 70, 5-(4-{4-[(cyclopropylmethyl)carbamoyl]-1H-1,2,3-triazol-1-yl}butyl)-N-[(6-methylpyridin-3-yl)methyl]-1,3,4-thiadiazole-2-carboxamide]",500 to 5000
5,"O=C(CN1CC(F)C1)Nc1cn(CCCCn2cc(C(=O)NCc3cc(Cl)ccc3F)nn2)nn1 [Example 349, N-[(5-chloro-2-fluorophenyl)methyl]-1-(4-{4-[2-(3-fluoroazetidin-1-yl)acetamido]-1H-1,2,3-triazol-1-yl}butyl)-1H-1,2,3-triazole-4-carboxamide]",100 to 500
6,"O=C(Cc1ccccn1)Nc1cn(CCCCn2cc(C(=O)NCC3CCCC3)nn2)nn1 [Example 291, N-(cyclopentylmethyl)-1-(4-{4-[2-(pyridin-2-yl)acetamido]-1H-1,2,3-triazol-1-yl}butyl)-1H-1,2,3-triazole-4-carboxamide]",500 to 5000
7,"CS(=O)(=O)NCc1cn(CCCCn2cc(C(=O)NCc3cccc(OC(F)(F)F)c3)nn2)nn1 [Example 9, 1-(4-(4-(Methylsulfonamidomethyl)-1H-1,2,3-triazol-1-yl)butyl)-N-(3-(trifluoromethoxy)benzyl)-1H-1,2,3-triazole-4-carboxamide]",500 to 5000
8,"O=C(CN1CC(F)(F)C1)Nc1cn(CCCCn2cc(C(=O)NCc3ccccn3)nn2)nn1 [Example 323, 1-(4-{4-[2-(3,3-difluoroazetidin-1-yl)acetamido]-1H-1,2,3-triazol-1-yl}butyl)-N-(pyridin-2-ylmethyl)-1H-1,2,3-triazole-4-carboxamide]",500 to 5000
9,"O=C(NCC1CC1)c1cn(CCCCc2nnc(C(=O)NCc3ccccn3)s2)nn1 [Example 69, 5-(4-{4-[(cyclopropylmethyl)carbamoyl]-1H-1,2,3-triazol-1-yl}butyl)-N-(pyridin-2-ylmethyl)-1,3,4-thiadiazole-2-carboxamide]",500 to 5000
10,"O=C(CC1CCCC1)Nc1cn(CCCCn2cc(C(=O)NCC3CCCCC3)nn2)nn1 [Example 282, N-(cyclohexylmethyl)-1-{4-[4-(2-cyclopentylacetamido)-1H-1,2,3-triazol-1-yl]butyl}-1H-1,2,3-triazole-4-carboxamide]",500 to 5000
11,"O=C(Cc1cccnc1)Nc1cn(CCCCn2cc(C(=O)NCC3CCCC3)nn2)nn1 [Example 290, N-(cyclopentylmethyl)-1-(4-{4-[2-(pyridin-3-yl)acetamido]-1H-1,2,3-triazol-1-yl}butyl)-1H-1,2,3-triazole-4-carboxamide]",500 to 5000
12,"O=C(Cc1ccccn1)Nc1cn(CC(F)CCn2cc(C(=O)NCc3ccccn3)nn2)nn1 (centres unmarked) [Example 362, 1-(3-fluoro-4-{4-[2-(pyridin-2-yl)acetamido]-1H-1,2,3-triazol-1-yl}butyl)-N-(pyridin-2-ylmethyl)-1H-1,2,3-triazole-4-carboxamide]",500 to 5000
13,"CC(C)(C)OC(=O)N1CCC(Cn2cc(CCCCn3cc(C(=O)NCc4cccc(OC(F)(F)F)c4)nn3)nn2)CC1 [Example 8, Tert-butyl 4-((4-(4-(4-(3-(trifluoromethoxy)benzylcarbamoyl)-1H-1,2,3-triazol-1-yl)butyl)-1H-1,2,3-triazol-1-yl)methyl)piperidine-1-carboxylate]",100 to 500
14,"Cc1ccc(CNC(=O)c2cn(CCCCn3cc(NC(=O)CN4CC(F)(F)C4)nn3)nn2)cn1 [Example 351, 1-(4-{4-[2-(3,3-difluoroazetidin-1-yl)acetamido]-1H-1,2,3-triazol-1-yl}butyl)-N-[(6-methylpyridin-3-yl)methyl]-1H-1,2,3-triazole-4-carboxamide]",500 to 5000
15,"Cc1ccc(CNC(=O)c2nnc(CCCCn3cc(C(=O)NCc4ccccn4)nn3)s2)cn1 [Example 67, N-[(6-methylpyridin-3-yl)methyl]-5(4-{4-[(pyridin-2-ylmethyl)carbamoyl]-1H-1,2,3-triazol-1-yl}butyl)-1,3,4-thiadiazole-2-carboxamide]",100 to 500
16,"O=C(NCc1ccccn1)c1cn(CCCCc2nnc(C(=O)NCc3ccccn3)s2)nn1 [Example 66, N-(pyridin-2-ylmethyl)-5-(4-{4-[(pyridin-2-ylmethyl)carbamoyl)-1H-1,2,3-triazol-1-yl}butyl)-1,3,4-thiadiazole-2-carboxamide]",500 to 5000
17,"O=C(CC1CCCCC1)Nc1cn(CCCCn2cc(C(=O)NCC3CCCCC3)nn2)nn1 [Example 283, 1-{4-[4-(2-cyclohexylacetamido)-1H-1,2,3-triazol-1-yl]butyl}-N-(cyclohexylmethyl)-1H-1,2,3-triazole-4-carboxamide]",500 to 5000
18,"O=C(CN1CCC(F)(F)C1)Nc1cn(CCCCn2cc(C(=O)NCc3ncccc3F)nn2)nn1 [Example 357, 1-(4-{4-[2-(3,3-difluoropyrrolidin-1-yl)acetamido]-1H-1,2,3-triazol-1-yl}butyl)-N-[(3-fluoropyridin-2-yl)methyl]-1H-1,2,3-triazole-4-carboxamide]",500 to 5000
19,"O=C(Cc1ccccn1)Nc1cn(CCCCn2cc(C(=O)NCC3CC3)nn2)nn1 [Example 302, N-(cyclopropylmethyl)-1-(4-{4-[2-(pyridin-2-yl)acetamido]-1H-1,2,3-triazol-1-yl}butyl)-1H-1,2,3-triazole-4-carboxamide]",500 to 5000
20,"O=C(CC1CC1)Nc1cn(CCCCn2cc(C(=O)NCC3CCCC3)nn2)nn1 [Example 287, N-(cyclopentylmethyl)-1-{4-[4-(2-cyclopropylacetamido)-1H-1,2,3-triazol-1-yl]butyl}-1H-1,2,3-triazole-4-carboxamide]",500 to 5000
21,"O=C(CN1CCC(F)(F)CC1)Nc1cn(CCCCn2cc(C(=O)NCc3ncccc3F)nn2)nn1 [Example 361, 1-(4-{4-[2-(4,4-difluoropiperidin-1-yl)acetamido]-1H-1,2,3-triazol-1-yl}butyl)-N-[(3-fluoropyridin-2-yl)methyl]-1H-1,2,3-triazole-4-carboxamide]",500 to 5000
22,"CC(C)CCNCc1cn(CCCCn2cc(C(=O)NCc3cccc(OC(F)(F)F)c3)nn2)nn1 [Example 57, 1-(4-(4-((isopentylamino)methyl)-1H-1,2,3-triazol-1-yl)butyl)-N-(3-(trifluoromethoxy)benzyl)-1H-1,2,3-triazole-4-carboxamide]",500 to 5000

# Test system: A549 cells
# Assay: Proliferation Assay (A549 viability, Cell Titer Fluor, 72 hours)
# Format: cell-based
# Details: Homo sapiens, A549, 72 h
# Method: A549 cells were routinely maintained in RPMI 1640 media (Gibco catalog number 11875-093) supplemented with 10% dialyzed fetal bovine serum using a humidified incubator (37° C., 5% CO2 and ambient O2). In preparation for the viability assay, cells were inoculated into 384-well black CulturPlates (Perkin Elmer) at a density of 1000 cells/well in a volume of 40 uL. Following a 24-hour incubation at 37° C., 5% CO2 and ambient O2, cells were treated with compound (10 uL) in a final DMSO concentration of 0.5% (v/v). The microplates were then incubated for 72 hours (37° C., 5% CO2 and ambient O2). Cell Titer Fluor (Promega) was subsequently added (10 uL of 6× reagent) and mixed for 15 minutes at room temperature. The plates were then incubated for 30 minutes (37° C., 5% CO2 and ambient O2) and fluorescence was subsequently read on the Perkin Elmer Envision plate reader. IC50 values were calculated using a four-parameter logistic curve fit.
# Non-limiting examples include the following compounds and pharmaceutically acceptable salts thereof. […] “ND” indicates no data.
row,SMILES,EC50 [nM]
1,"O=C(Cc1ccccn1)Nc1ccc(CCCCn2cc(C(=O)NCc3cccc(OC(F)(F)F)c3)nn2)nn1 [Example 169, 1-(4-{6-[2-(pyridin-2-yl)acetamido]pyridazin-3-yl}butyl)-N-{[3-(trifluoromethoxy)phenyl]methyl}-1H-1,2,3-triazole-4-carboxamide]",< 100
2,"CNC(=O)c1cn(C[C@H](F)CCc2ccc(NC(=O)Cc3cc(OC4CC(F)(F)C4)ccn3)nn2)nn1 [Example 272, (R)-1-(4-(6-(2-(4-(3,3-difluorocyclobutoxy)pyridin-2-yl)acetamido)pyridazin-3-yl)-2-fluorobutyl)-N-methyl-1H-1,2,3-triazole-4-carboxamide]",< 100
3,"O=C(NCc1ccccc1)c1cn(CCCCc2nnc(C(=O)NCc3cccc(OC(F)(F)F)c3)s2)nn1 [Example 39, 5-{4-[4-(benzylcarbamoyl)-1H-1,2,3-triazol-1-yl]butyl}-N-{[3-(trifluoromethoxy)phenyl]methyl}-1,3,4-thiadiazole-2-carboxamide]",100 to 500
4,"CNC(=O)c1cn(CCCCc2ccc(NC(=O)Cc3cc(C(F)(F)F)ccn3)nn2)nn1 [Example 210, N-methyl-1-(4-(6-(2-(4-(trifluoromethyl)pyridin-2-yl)acetamido)pyridazin-3-yl)butyl)-1H-1,2,3-triazole-4-carboxamide]",100 to 500
5,"CNC(=O)c1cn(CCCCc2ccc(NC(=O)Cc3cccnc3)nn2)nn1 [Example 541, N-methyl-1-(4-{6-[2-(pyridin-3-yl)acetamido]pyridazin-3-yl}butyl)-1H-1,2,3-triazole-4-carboxamide]",500 to 5000
6,"CC(C)CNC(=O)c1nnc(CCCCn2cc(C(=O)NCc3cccc(OC(F)(F)F)c3)nn2)s1 [Example 44, N-(2-methylpropyl)-5-{4-[4-({[3-(trifluoromethoxy)phenyl]methyl}carbamoyl)-1H-1,2,3-triazol-1-yl]butyl}-1,3,4-thiadiazole-2-carboxamide]",100 to 500
7,"CNC(=O)c1cn(CC(F)CCc2ccc(NC(=O)Cc3cc(-c4cccc(OC(F)(F)F)c4)ccn3)nn2)nn1 (centres unmarked) [Example 242, 1-(2-fluoro-4-(6-(2-(4-(3-(trifluoromethoxy)phenyl)pyridin-2-yl)acetamido)pyridazin-3-yl)butyl)-N-methyl-1H-1,2,3-triazole-4-carboxamide]",< 100
